Source: US5750504A, “Antimicrobial proteins” (Zeneca Agrochemicals, priority 1996, dated 1998)

Experiments:
Type in all cases: cell-based
Acremonium hyalinum = assay: Antifungal activity assay (microspectrophotometry); conditions: strain FAJ98, host Musa, inoculum Sp, period of incubation in AFP-solution 64
Method: (§1) Antifungal activity was measured by microspectrophotometry as previously described (Broekaert, 1990, FEMS Microbiol Lett, 69:55-60). Routinely, tests were performed with 20 μl of a (filter-sterilized) test solution and 80 μl of a suspension of fungal spores (2×10^4 spores/ml) in half strength potato dextrose broth (1/2 PDB). […] Control microcultures contained 20 μl of sterile distilled water and 80 μl of the fungal spore suspension.
(§2) Unless otherwise stated the test organism was Fusarium culmorum (strain IMI 180420) and incubation was done at 25° C. for 48 hours. Percent growth inhibition is defined as 100 times the ratio of the corrected absorbance of the control microculture minus the corrected absorbance of the test microculture over the corrected absorbance at 595 nm of the control microculture. The corrected absorbance values equal the absorbance at 595 nm of the culture measured after 48 hours minus the absorbance at 595 nm measured after 30 min.
(§3) The antifungal potency of the purified proteins was assessed on different plant pathogenic fungi, using the assay described in Example 1. Growth of fungi, collection and harvest of fungal spores and preparation of mycelial fragments were done as previously described (Broekaert et al, 1990, FEMS Microbiol Lett, 69:55-60). Serial dilutions of the antifungal proteins were applied to the fungi, either using growth medium SMF- (the synthetic growth medium of Example 1), medium SMF+ (medium SMF- supplemented with 1 mM CaCl2 and 50 mM KCl), growth medium 1/2 PDB- (half strength potato dextrose broth as in Example 1) or growth medium 1/2 PDB+ (medium 1/2 PDB- supplemented with 1 mM CaCl2 and 50 mM Kcl). The percent growth inhibition was measured by microspectrophotometry. The concentration required for 50% growth inhibition after 48 h of incubation (IC50 value) was calculated from the dose-reponse curves.
(§4) The abbreviations used are: IC50 =concentration required for 50% growth inhibition determined as described in Example 1; ND=not determined; Sp=spores; PrSp=spores pregerminated in the medium for 24 hours; MF=mycelial fragments preincubated for 48 hours in the medium prior to addition of the proteins; BHR=broad host range; SF=saprophytic fungus; SMF-=synthetic growth medium as described in Example 1; SMF+=SMF- supplemented with 1 mM CaCl2 and 50 mM KCl; 1/2PDB-=half strength potato dextrose broth as described in Example 1; 1/2PDB+=1/2PDB- supplemented with 1 mM CaCl2 and 50 mM KCl.

Alternaria brassicola = assay: Antifungal activity assay (microspectrophotometry); conditions: strain MUCL20297, host Brassica, inoculum Sp, period of incubation in AFP-solution 48
Method: as §1, §2, §3, §4

Curvularia affinis = assay: Antifungal activity assay (microspectrophotometry); conditions: strain FAJ97, host Musa, inoculum Sp, period of incubation in AFP-solution 40
Method: as §1, §2, §3, §4

Gloeosporium musarum = assay: Antifungal activity assay (microspectrophotometry); conditions: for IC50: inoculum Sp, period of incubation in AFP-solution 40
Method: as §1, §2, §3, §4

Glomerella cingulata = assay: Antifungal activity assay (microspectrophotometry); conditions: strain FAJ76, host Musa, inoculum Sp, period of incubation in AFP-solution 64
Method: as §1, §2, §3, §4

Eschericia coli HB101 = assay: Antibacterial activity assay (microspectrophotometry); conditions: tested at 200 μg/ml
Method: (§5) Antibacterial activity was measured microspectrophotometrically as follows. A bacterial suspension was prepared by inoculating soft nutrient agarose (tryptone, 10 g/l; Seaplaque agarose (FMC), 5 g/l). Aliquots (80 μl) of the bacterial suspension (10^5 colony forming units per ml) were added to filter-sterilized samples (20 μl) in flat-bottom 96-well microplates. The absorbance at 595 nm of the culture was measured with the aid of a microplate reader after 30 minutes and 24 hours of incubation at 28° C. Percent growth inhibition was calculated as described above for the antifungal activity assay.
(§6) The antibacterial activities of Ah-AMP1 and Hs-AFP1 were measured on four gram positive bacteria (Bacillus subtilis JHCC 553331; Micrococcus luteus ATCC 93411; Staphylococcus aureus ATCC 25923; Streptococcus feacolis ATCC 29212) and two gram negative bacteria (Eschericia coli HB101 and Proteus vulgaris JHCC 558711).

[1] = test system: Micrococcus luteus ATCC 93411; assay: as above; conditions: tested at 200 μg/ml
Method: as §5, §6

[2] = test system: Proteus vulgaris JHCC 558711; assay: as above; conditions: tested at 200 μg/ml
Method: as §5, §6

[3] = test system: Staphylococcus aureus ATCC 25923; assay: as above; conditions: tested at 200 μg/ml
Method: as §5, §6

[4] = test system: Streptococcus feacolis ATCC 29212; assay: as above; conditions: tested at 200 μg/ml
Method: as §5, §6

Row | Substance | IC50 (Acremonium hyalinum; medium SMF+) [µg/mL] | IC50 (Acremonium hyalinum; medium SMF-) [µg/mL] | IC50 (Alternaria brassicola; medium SMF+) [µg/mL] | IC50 (Alternaria brassicola; medium SMF-) [µg/mL] | IC50 (Curvularia affinis; medium SMF+) [µg/mL] | IC50 (Curvularia affinis; medium SMF-) [µg/mL] | reduction of activity in medium SMF- versus SMF+ (Gloeosporium musarum; on Gloeosporium musarum) | IC50 (Gloeosporium musarum; strain FAJ86, host Muaa, medium SMF+) [µg/mL] | IC50 (Gloeosporium musarum; strain FAJB6, host Musa, medium SMF-) [µg/mL] | IC50 (Glomerella cingulata; medium SMF+) [µg/mL] | IC50 (Glomerella cingulata; medium SMF-) [µg/mL] | inhibition of bacterial growth (Eschericia coli HB101) | inhibition of bacterial growth [1] | inhibition of bacterial growth [2] | inhibition of bacterial growth [3] | inhibition of bacterial growth [4]
1 | Ah-AMP1: Aesculus hippocastanum antimicrobial protein 1; 5 kDa polypeptide purified from seeds, 50 amino acids, SEQ ID NO 2 (LCNERPSQTWSGNCGNTAHCDKQCQDWEKASHGACHKRENHWKCFCYFNC) | 12.5 | < 0.75 | 12 | 1.5 | 25 | 0.75 | more than ten-fold | 12.5 | < 0.75 | 12.5 | < 0.75 |  |  |  |  | 
2 | Hs-AFP1: Heuchera sanquinea antifungal protein 1; 5 kDa polypeptide purified from seeds, 54 amino acids, SEQ ID NO 1 (DGVKLCDVPSGTWSGHCGSSSKCSQQCKDREHFAYGGACHYQFPSVKCFCKRQC) |  |  |  |  |  |  |  |  |  |  |  | did not inhibit the growth | did not inhibit the growth | did not inhibit the growth | did not inhibit the growth | did not inhibit the growth
